Test system: Conditioned Avoidance Response (CAR)
Assay: Conditioned Avoidance Response (CAR) test in mice, oral
Format: in vivo, mouse (female white mice)
Settings: female white mice, moving average method
Description: The paradigm used for predicting tranquilizer activity was a Conditioned Avoidance Response (CAR) test in mice. Female white mice, 19-23 g, were used. The apparatus modified from Bovet, D. et al., Science, 163, 139-149 (1969), was a one-way shuttlebox with 0.4 mA scrambled electric footshock as unconditioned stimulus (US) and a 6 watt white light plus a relay buzzer as conditioned stimuli (CS). Mice were conditioned by three sets of 1-5 trials on day 1, then were fasted for 17-21 hours. The conditioned mice were tested for retention of the conditioned response on day 2, and then were dosed orally with test drug at doses such as 0, 1, 3, 9, 27 and 81 mg/kg. ED50 values (doses at which 50% of the animals would be expected to show response failure) were calculated by the moving average method [Thompson, W. R., Bact. Rev., 11, 115 (1947)].

5-Chloro-1,2,3,4-tetrahydro-3-(3-oxobutyl)pyrido[4',3':2,3]indolo[1,7-ab][1,4]benzodiazepin-8(9H)-one [Example 52]
Mouse CAR ED50 (avoidance ED50, dose at which 50% of the animals would be expected to show response failure): 39 mg/kg

CCN1CC[C@@H]2[C@@H](C1)c1cc(Cl)cc3c1N2c1ccccc1CN3.Cl.Cl (relative stereo) [Example 96, trans-6-Chloro-3-ethyl-1,2,3,4,4a,8,9,14a-octahydropyrido[4',3':2,3]indolo[1,7-ab][1,4]benzodiazepine, Dihydrochloride]
Mouse CAR ED50 (avoidance ED50, dose at which 50% of the animals would be expected to show response failure): 0.3 mg/kg

CN1CC[C@@H]2[C@@H](C1)c1cccc3c1N2c1ccccc1CN3 (relative stereo) [Example 97]
Mouse CAR ED50 (avoidance ED50, dose at which 50% of the animals would be expected to show response failure): 9.0 mg/kg

CN1CC[C@@H]2[C@@H](C1)c1cccc3c1N2c1ccc(Cl)cc1CN3 (relative stereo) [Example 99]
Mouse CAR ED50 (avoidance ED50, dose at which 50% of the animals would be expected to show response failure): 1.4 mg/kg

CN1CC[C@@H]2[C@@H](C1)c1cc(Cl)cc3c1N2c1ccc(Cl)cc1CN3 (relative stereo) [Example 100]
Mouse CAR ED50 (avoidance ED50, dose at which 50% of the animals would be expected to show response failure): 2.1 mg/kg

Cc1ccc2c(c1)CNc1cc(Cl)cc3c1N2[C@@H]1CCN(C)C[C@@H]31 (relative stereo) [Example 101]
Mouse CAR ED50 (avoidance ED50, dose at which 50% of the animals would be expected to show response failure): 0.69 mg/kg

CCN1CC[C@@H]2[C@@H](C1)c1c(Cl)ccc3c1N2c1ccccc1CN3 (relative stereo) [Example 102]
Mouse CAR ED50 (avoidance ED50, dose at which 50% of the animals would be expected to show response failure): 5.8 mg/kg

CCN1CC[C@@H]2[C@@H](C1)c1cc(C(F)(F)F)cc3c1N2c1ccccc1CN3 (relative stereo) [Example 103]
Mouse CAR ED50 (avoidance ED50, dose at which 50% of the animals would be expected to show response failure): 1.2 mg/kg

CCN1CC[C@@H]2[C@@H](C1)c1cccc3c1N2c1ccccc1CN3C (relative stereo) [Example 104]
Mouse CAR ED50 (avoidance ED50, dose at which 50% of the animals would be expected to show response failure): 41 mg/kg

CCN1CC[C@@H]2[C@@H](C1)c1cccc3c1N2c1ccc(Cl)cc1CN3 (relative stereo) [Example 105]
Mouse CAR ED50 (avoidance ED50, dose at which 50% of the animals would be expected to show response failure): 24 mg/kg

CCN1CC[C@@H]2[C@@H](C1)c1cc(Cl)cc3c1N2c1ccccc1CN3C (relative stereo) [Example 106]
Mouse CAR ED50 (avoidance ED50, dose at which 50% of the animals would be expected to show response failure): 5.8 mg/kg

CCN1CC[C@@H]2[C@@H](C1)c1cc(C(F)(F)F)cc3c1N2c1ccccc1CN3C (relative stereo) [Example 107]
Mouse CAR ED50 (avoidance ED50, dose at which 50% of the animals would be expected to show response failure): 10.1 mg/kg

CCCCCCN1CC[C@@H]2[C@@H](C1)c1cc(Cl)cc3c1N2c1ccc(C)cc1CN3 (relative stereo) [Example 108]
Mouse CAR ED50 (avoidance ED50, dose at which 50% of the animals would be expected to show response failure): 2.5 mg/kg

Clc1ccc2c(c1)CNc1cccc3c1N2[C@@H]1CCN(CC2CC2)C[C@@H]31 (relative stereo) [Example 109]
Mouse CAR ED50 (avoidance ED50, dose at which 50% of the animals would be expected to show response failure): 2.1 mg/kg

FC(F)(F)c1cc2c3c(c1)[C@@H]1CN(CC4CC4)CC[C@H]1N3c1ccccc1CN2 (relative stereo) [Example 110]
Mouse CAR ED50 (avoidance ED50, dose at which 50% of the animals would be expected to show response failure): 15.6 mg/kg

c1ccc2c(c1)CNc1cccc3c1N2[C@@H]1CCN(CC2CCCCC2)C[C@@H]31 (relative stereo) [Example 111]
Mouse CAR ED50 (avoidance ED50, dose at which 50% of the animals would be expected to show response failure): 3.3 mg/kg

CN1Cc2ccccc2N2c3c(cccc31)[C@@H]1CN(Cc3ccccc3)CC[C@H]12 (relative stereo) [Example 112]
Mouse CAR ED50 (avoidance ED50, dose at which 50% of the animals would be expected to show response failure): 6.8 mg/kg

Cc1ccc2c(c1)CNc1cc(Cl)cc3c1N2[C@@H]1CCN(CCc2ccccc2)C[C@@H]31 (relative stereo) [Example 113]
Mouse CAR ED50 (avoidance ED50, dose at which 50% of the animals would be expected to show response failure): 3.5 mg/kg

Clc1ccc2c(c1)CNc1cccc3c1N2[C@@H]1CCN(CCc2ccccc2)C[C@@H]31 (relative stereo) [Example 114]
Mouse CAR ED50 (avoidance ED50, dose at which 50% of the animals would be expected to show response failure): 5.2 mg/kg

O=C1Nc2cccc3c4c(n(c23)-c2ccccc21)CCNC4 [Example 2, 1,2,3,4-tetrahydropyrido[4',3':2,3]indolo[1,7-ab][1,4]benzodiazepin-9(8H)-one]
Mouse CAR ED50 (avoidance ED50, dose at which 50% of the animals would be expected to show response failure): 39 mg/kg

O=C1Nc2ccc(Cl)c3c4c(n(c23)-c2ccccc21)CCNC4 [Example 3]
Mouse CAR ED50 (avoidance ED50, dose at which 50% of the animals would be expected to show response failure): 45 mg/kg

O=C1Nc2cc(Cl)cc3c4c(n(c23)-c2ccccc21)CCNC4 [Example 4]
Mouse CAR ED50 (avoidance ED50, dose at which 50% of the animals would be expected to show response failure): 29 mg/kg

O=C1Nc2cc(C(F)(F)F)cc3c4c(n(c23)-c2ccccc21)CCNC4 [Example 5]
Mouse CAR ED50 (avoidance ED50, dose at which 50% of the animals would be expected to show response failure): 81 mg/kg

Cc1ccc2c(c1)C(=O)Nc1cccc3c4c(n-2c13)CCNC4 [Example 6]
Mouse CAR ED50 (avoidance ED50, dose at which 50% of the animals would be expected to show response failure): 24 mg/kg

O=C1Nc2cccc3c4c(n(c23)-c2ccc(Cl)cc21)CCNC4 [Example 7]
Mouse CAR ED50 (avoidance ED50, dose at which 50% of the animals would be expected to show response failure): 25 mg/kg

O=C1Nc2cccc3c4c(n(c23)-c2cc(Cl)ccc21)CCNC4 [Example 8]
Mouse CAR ED50 (avoidance ED50, dose at which 50% of the animals would be expected to show response failure): > 54 mg/kg

Cc1ccc2c(c1)C(=O)Nc1ccc(Cl)c3c4c(n-2c13)CCNC4 [Example 9]
Mouse CAR ED50 (avoidance ED50, dose at which 50% of the animals would be expected to show response failure): > 81 mg/kg

CN1CCc2c(c3c(Cl)ccc4c3n2-c2ccccc2C(=O)N4)C1 [Example 10]
Mouse CAR ED50 (avoidance ED50, dose at which 50% of the animals would be expected to show response failure): 19.7 mg/kg

CN1CCc2c(c3cc(Cl)cc4c3n2-c2ccccc2C(=O)N4)C1 [Example 11]
Mouse CAR ED50 (avoidance ED50, dose at which 50% of the animals would be expected to show response failure): 67 mg/kg

CN1CCc2c(c3cccc4c3n2-c2ccc(Cl)cc2C(=O)N4)C1 [Example 12]
Mouse CAR ED50 (avoidance ED50, dose at which 50% of the animals would be expected to show response failure): 12 mg/kg

Cc1ccc2c(c1)C(=O)Nc1cc(Cl)cc3c4c(n-2c13)CCN(C)C4 [Example 13]
Mouse CAR ED50 (avoidance ED50, dose at which 50% of the animals would be expected to show response failure): 10.5 mg/kg

CN1CCc2c(c3cc(Cl)cc4c3n2-c2ccc(Cl)cc2C(=O)N4)C1 [Example 14]
Mouse CAR ED50 (avoidance ED50, dose at which 50% of the animals would be expected to show response failure): 31 mg/kg

Cc1ccc2c(c1)C(=O)Nc1cc(Cl)cc3c4c(n-2c13)CCN(CCc1ccccc1)C4 [Example 16]
Mouse CAR ED50 (avoidance ED50, dose at which 50% of the animals would be expected to show response failure): 47 mg/kg

CN1CCc2c(c3cc(C(F)(F)F)cc4c3n2-c2ccc(Cl)cc2C(=O)N4)C1 [Example 17]
Mouse CAR ED50 (avoidance ED50, dose at which 50% of the animals would be expected to show response failure): 37 mg/kg

CN1CCc2c(c3cc(C(F)(F)F)cc4c3n2-c2ccccc2C(=O)N4)C1 [Example 18]
Mouse CAR ED50 (avoidance ED50, dose at which 50% of the animals would be expected to show response failure): > 81 mg/kg

Cc1ccc2c(c1)C(=O)Nc1ccc(Cl)c3c4c(n-2c13)CCN(C)C4 [Example 19]
Mouse CAR ED50 (avoidance ED50, dose at which 50% of the animals would be expected to show response failure): > 81 mg/kg

Cc1ccc2c(c1)C(=O)Nc1cc(Cl)cc3c4c(n-2c13)CCNC4 [Example 20]
Mouse CAR ED50 (avoidance ED50, dose at which 50% of the animals would be expected to show response failure): > 81 mg/kg

O=C1Nc2cc(C(F)(F)F)cc3c4c(n(c23)-c2ccc(Cl)cc21)CCNC4 [Example 21]
Mouse CAR ED50 (avoidance ED50, dose at which 50% of the animals would be expected to show response failure): > 81 mg/kg

CC(C)N1CCc2c(c3cccc4c3n2-c2ccccc2C(=O)N4)C1 [Example 31, 1,2,3,4-Tetrahydro-3-(2-propyl)pyrido[4',3':2,3]indolo[1,7-ab][1,4]benzodiazepin-9(8H)-one]
Mouse CAR ED50 (avoidance ED50, dose at which 50% of the animals would be expected to show response failure): 23 mg/kg

CCN1CCc2c(c3cccc4c3n2-c2ccccc2C(=O)N4)C1 [Example 32]
Mouse CAR ED50 (avoidance ED50, dose at which 50% of the animals would be expected to show response failure): 27 mg/kg

CCCN1CCc2c(c3c(Cl)ccc4c3n2-c2ccccc2C(=O)N4)C1 [Example 33]
Mouse CAR ED50 (avoidance ED50, dose at which 50% of the animals would be expected to show response failure): 21.7 mg/kg

CCCN1CCc2c(c3cc(Cl)cc4c3n2-c2ccccc2C(=O)N4)C1 [Example 34]
Mouse CAR ED50 (avoidance ED50, dose at which 50% of the animals would be expected to show response failure): 13.6 mg/kg

CCCCCCN1CCc2c(c3cccc4c3n2-c2ccccc2C(=O)N4)C1 [Example 35]
Mouse CAR ED50 (avoidance ED50, dose at which 50% of the animals would be expected to show response failure): 56.2 mg/kg

CCCCCCN1CCc2c(c3c(Cl)ccc4c3n2-c2ccccc2C(=O)N4)C1 [Example 36]
Mouse CAR ED50 (avoidance ED50, dose at which 50% of the animals would be expected to show response failure): 52 mg/kg

CCCCCCN1CCc2c(c3cc(Cl)cc4c3n2-c2ccccc2C(=O)N4)C1 [Example 37]
Mouse CAR ED50 (avoidance ED50, dose at which 50% of the animals would be expected to show response failure): 11.8 mg/kg

O=C1Nc2cccc3c4c(n(c23)-c2ccccc21)CCN(CC1CCCCC1)C4 [Example 38]
Mouse CAR ED50 (avoidance ED50, dose at which 50% of the animals would be expected to show response failure): 56.2 mg/kg

O=C(CCCN1CCc2c(c3cc(Cl)cc4c3n2-c2ccccc2C(=O)N4)C1)c1ccc(F)cc1 [Example 40]
Mouse CAR ED50 (avoidance ED50, dose at which 50% of the animals would be expected to show response failure): 47 mg/kg

CCCCCCN1CCc2c(c3c(Cl)ccc4c3n2-c2ccc(C)cc2C(=O)N4)C1 [Example 41]
Mouse CAR ED50 (avoidance ED50, dose at which 50% of the animals would be expected to show response failure): > 81 mg/kg

CCCCCCN1CCc2c(c3cc(Cl)cc4c3n2-c2ccc(C)cc2C(=O)N4)C1 [Example 42]
Mouse CAR ED50 (avoidance ED50, dose at which 50% of the animals would be expected to show response failure): 162 mg/kg

CCCCCCN1CCc2c(c3cccc4c3n2-c2ccc(Cl)cc2C(=O)N4)C1 [Example 43]
Mouse CAR ED50 (avoidance ED50, dose at which 50% of the animals would be expected to show response failure): > 81 mg/kg

CCCCCCCCCCN1CCc2c(c3cc(Cl)cc4c3n2-c2ccccc2C(=O)N4)C1 [Example 44]
Mouse CAR ED50 (avoidance ED50, dose at which 50% of the animals would be expected to show response failure): > 162 mg/kg

Cl.O=C(O)CCCN1CCc2c(c3cc(Cl)cc4c3n2-c2ccccc2C(=O)N4)C1 [Example 51, 6-Chloro-1,2,8,9-tetrahydro-9-oxopyrido[4',3':2,3]indolo[1,7-ab][1,4]benzodiazepin-3(4H)-butanoic acid hydrochloride]
Mouse CAR ED50 (avoidance ED50, dose at which 50% of the animals would be expected to show response failure): 56.2 mg/kg

Clc1cc2c3c(c1)c1c(n3-c3ccccc3CN2)CCNC1 [Example 59, 6-Chloro-1,2,3,4,8,9-hexahydropyrido[4',3':2,3]indolo[1,7-ab][1,4]benzodiazepine]
Mouse CAR ED50 (avoidance ED50, dose at which 50% of the animals would be expected to show response failure): 9.0 mg/kg

Source: US4438120A, “Pyridoindolobenzodiazepine tranquilizers” (E. I. Du Pont de Nemours & Company, priority 1982, dated 1984)
